# Laboratory results taken from PMC7024211, “Antifouling Napyradiomycins from Marine-Derived Actinomycetes Streptomyces aculeolatus” (Marine Drugs, 2020).
# How the values were obtained:
# Orcorhynchus mykiss = conditions: experimental data ref Tisler and Zagorc-Koncan, 2003; cited from earlier work
# Scenedesmus quadricauda = conditions: experimental data ref Tisler and Zagorc-Koncan, 2003; cited from earlier work
# Oral rat/rabit = conditions: ref Acros Organics safety data sheet; cited from earlier work
# Daphnia magna [1] = conditions: experimental data ref Tisler and Zagorc-Koncan, 2003; cited from earlier work
# [2] = cited from earlier work
# Daphnia magna [3] = conditions: experimental data ref Tisler and Zagorc-Koncan, 2003; cited from earlier work; remark: listed apart in the source
# P. batsensis [4] = assay: Bacterial growth inhibition assay (OD600nm); assay type: cell-based, Pseudooceanicola batsensis; conditions: CuSO4 5 μM reference
# Experimental: (§1) As a first screening approach, liquid cultures of M. hydrocarbonoclasticus, and C. marina in a 96-well format were analyzed for bacterial growth inhibition by percent decrease in OD600 after incubation with napyradiomycins (1–12) at 31.25 µg/mL.
# (§2) Five marine bacterial species were used as models to assess antimicrofouling activity. The biofilm-forming marine bacteria Marinobacter hydrocarbonoclasticus DSM 8798 (ATCC 49840), Cobetia marina DSM 4741, Phaeobacter inhibens DSM 17,395, and Pseusooceanicola batsensis DSM 15,984 were obtained from DSMZ (Leibniz Institute DSMZ—German collection of Microorganisms and Cell Cultures) and Micrococcus luteus. Cultures were routinely grown in liquid marine broth (Carl Roth GmbH, Karlsruhe, Germany) with agitation (180 rpm) or on agar-supplemented marine broth, at 28 °C (M. hydrocarbonoclasticus and C. marina) or 30 °C (P. inhibens and P. batsensis). M. luteus was maintained in Brain Heart Infusion broth (BHI, Becton Dickinson, GmbH, Heidelberg, Germany) with agitation (180 rpm) or on agar-supplemented BHI, at 37 °C.
# (§3) The antibacterial activity of the napyradiomycins (1–12) was assessed in 96-well polystyrene flat bottom microplates (Nunclon Delta Surface, Thermo Scientific, Roskilde, Denmark) following previously reported procedures. For initial screening, bacterial overnight cultures were diluted to an optical density (OD600nm) of 0.2 and incubated statically at 28 °C (M. hydrocarbonoclasticus, C. marina), 30 °C (P. inhibens, P. batsensis) or 37 °C (M. luteus) in a 96-well microplate in the presence or absence of 31.25 µg/mL of the napyradiomycins, solubilized in DMSO. After 24 h (M. hydrocarbonoclasticus, C. marina) or 48 h (P. batsensis, P. inhibens, M. luteus) incubation, the OD600nm was determined (Molecular Devices, Spectra Max 190). […] The percentage of growth inhibition was calculated as the amount of growth relative to that of the bacterial species without added compounds (with the same amount of DMSO added). CuSO4 (5 μM), a potent antifouling agent used in antifouling paints, was used as reference.
# (§4) All assays were performed in triplicate, and results are representative of the average and standard error of the mean (SEM). Statistical analysis was performed in GraphPad Prism 8.0.2 (San Diego, CA, USA), using one-way ANOVA followed by a Dunnett’s multiple comparisons test against the control (species grown with the same amount of DMSO added).
# C. marina [5] = assay: Bacterial growth inhibition assay (OD600nm); assay type: cell-based, Cobetia marina; conditions: CuSO4 5 μM reference
# Source text: as §2
# as §3, with “For initial screening, bacterial overnight cultures were diluted to an optical density (OD600nm) of 0.2 and incubated statically at 28 °C (M. hydrocarbonoclasticus, C. marina), 30 °C (P. inhibens, P. batsensis) or 37 °C (M. luteus) in a 96-well microplate in the presence or absence of 31.25 µg/mL of the napyradiomycins, solubilized in DMSO.” left out
# as §4
# M. luteus [6] = assay: Biofilm inhibition assay (crystal violet); assay type: cell-based, Micrococcus luteus; conditions: CuSO4 5 μM reference
# Experimental: (§5) In a 96-well plate, biofilm grown cultures of M. hydrocarbonoclasticus and C. marina were incubated with napyradiomycins (1–12) at a concentration of 31.25 µg/mL. After discarding the media, biofilm inhibition was determined from OD600 measurements of crystal violet stained cells resuspended from the plate bottom with acetic acid.
# as §2
# (§6) The antibiofilm activity of napyradiomycins (1–12) against the five marine bacterial species was assessed in 96-well polystyrene flat bottom microplates (Nunclon Delta Surface, Thermo Scientific, Roskilde, Denmark) as previously reported. For initial screening, bacterial overnight cultures were diluted to an optical density (OD600nm) value of 0.2 and incubated statically at 28 °C (M. hydrocarbonoclasticus, C. marina), 30 °C (P. inhibens, P. batsensis) or 37 °C (M. luteus) in the 96-well microplate in the presence or absence of 31.25 µg/mL of napyradiomycins, solubilized in DMSO. After 24 h (M. hydrocarbonoclasticus, C. marina) or 48 h (P. batsensis, P. inhibens, M. luteus) incubation, the OD600nm was determined. The planktonic cells and media were discarded, and the wells were washed twice with deionized water. The biofilm was fixed for 1 h at 60 °C and stained with crystal violet 0.06% for 10 min. The dye was discarded, and the wells were again washed twice with deionized water. The stained biofilm was solubilized with 30% acetic acid and the OD600nm was determined. […] The percentage of biofilm inhibition was calculated as the amount of biofilm relative to that of the bacterial species without added compounds (with the same amount of DMSO added). CuSO4 (5 μM), a potent antifouling agent used in antifouling paints, was used as reference.
# as §4, with “8.0.2,” for “8.0.2 (San Diego, CA, USA),”
# P. inhibens [7] = assay: Biofilm inhibition assay (crystal violet); assay type: cell-based, Phaeobacter inhibens; conditions: CuSO4 5 μM reference
# Experimental: as §5, §2, §6
# All assays were performed in triplicate, and results are representative of the average and standard error of the mean (SEM). […]
# P. batsensis [8] = assay: Biofilm inhibition assay (crystal violet); assay type: cell-based, Pseudooceanicola batsensis; conditions: CuSO4 5 μM reference
# Experimental: as §5, §2, §6
# as §4, with “8.0.2,” for “8.0.2 (San Diego, CA, USA),”
# M. hydrocarbonoclasticus [9] = assay: Bacterial growth inhibition assay (OD600nm); assay type: cell-based, Marinobacter hydrocarbonoclasticus; conditions: CuSO4 5 μM reference
# Experimental: as §1, §2, §3, §4
# M. hydrocarbonoclasticus [10] = assay: Biofilm inhibition assay (crystal violet); assay type: cell-based, Marinobacter hydrocarbonoclasticus; conditions: CuSO4 5 μM reference
# Experimental: as §5, §2, §6
# as §4, with “8.0.2,” for “8.0.2 (San Diego, CA, USA),”
# P. inhibens [11] = assay: Bacterial growth inhibition assay (OD600nm); assay type: cell-based, Phaeobacter inhibens; conditions: CuSO4 5 μM reference
# Experimental: as §1
# Five marine bacterial species were used as models to assess antimicrofouling activity. The biofilm-forming marine bacteria Marinobacter hydrocarbonoclasticus DSM 8798 (ATCC 49840), Cobetia marina DSM 4741, Phaeobacter inhibens DSM 17,395, and Pseusooceanicola batsensis DSM 15,984 were obtained from DSMZ (Leibniz Institute DSMZ—German collection of Microorganisms and Cell Cultures) and Micrococcus luteus. […]
# The antibacterial activity of the napyradiomycins (1–12) was assessed in 96-well polystyrene flat bottom microplates (Nunclon Delta Surface, Thermo Scientific, Roskilde, Denmark) following previously reported procedures. […] After 24 h (M. hydrocarbonoclasticus, C. marina) or 48 h (P. batsensis, P. inhibens, M. luteus) incubation, the OD600nm was determined (Molecular Devices, Spectra Max 190). […] The percentage of growth inhibition was calculated as the amount of growth relative to that of the bacterial species without added compounds (with the same amount of DMSO added). […]
# M. luteus [12] = assay: Bacterial growth inhibition assay (OD600nm); assay type: cell-based, Micrococcus luteus; conditions: CuSO4 5 μM reference
# Source text: as §2
# The antibacterial activity of the napyradiomycins (1–12) was assessed in 96-well polystyrene flat bottom microplates (Nunclon Delta Surface, Thermo Scientific, Roskilde, Denmark) following previously reported procedures. […] After 24 h (M. hydrocarbonoclasticus, C. marina) or 48 h (P. batsensis, P. inhibens, M. luteus) incubation, the OD600nm was determined (Molecular Devices, Spectra Max 190). […] The percentage of growth inhibition was calculated as the amount of growth relative to that of the bacterial species without added compounds (with the same amount of DMSO added). CuSO4 (5 μM), a potent antifouling agent used in antifouling paints, was used as reference.
# as §4
# C. marina [13] = assay: Biofilm inhibition assay (crystal violet); assay type: cell-based, Cobetia marina; conditions: CuSO4 5 μM reference
# Experimental: as §5, §2, §6
# as §4, with “8.0.2,” for “8.0.2 (San Diego, CA, USA),”
SMILES,Aquatic toxicity Fish Orcorhynchus mykiss 96 hour LC50 (Orcorhynchus mykiss) [µg/mL],Aquatic toxicity Alga Scenedesmus quadricauda 72 hour IC50 (Scenedesmus quadricauda) [µg/mL],Acute toxicity Oral rat/rabit LD50 (Oral rat/rabit) [mg/kg],Aquatic toxicity Daphnia magna EC50 48 hour (Daphnia magna [1]) [µg/mL],ATE category [2],Chronic toxicity Daphnia magna 21 day NOEC (Daphnia magna [3]) [mg/L],% growth inhibition P. batsensis (P. batsensis [4]) [%],growth inhibition C. marina (C. marina [5]),biofilm inhibition M. luteus (M. luteus [6]),% biofilm inhibition P. inhibens (P. inhibens [7]) [%],% biofilm inhibition P. batsensis (P. batsensis [8]) [%],% growth inhibition M. hydrocarbonoclasticus (M. hydrocarbonoclasticus [9]) [%],biofilm inhibition M. hydrocarbonoclasticus (M. hydrocarbonoclasticus [10]),% growth inhibition P. inhibens (P. inhibens [11]) [%],growth inhibition M. luteus (M. luteus [12]),biofilm inhibition C. marina (C. marina [13])
[As] [Arsenic],15.3,34.7,12,2.5,"2 (category 2, 5 < ATE ≤ 50 mg/Kg)",1.85,,,,,,,,,,
[Cu] [Copper],0.48,0.18,140,0.030,"3 (category 3, 50 < ATE ≤ 300 mg/Kg)",0.015,,,,,,,,,,
"O=S(=O)([O-])[O-].[Cu+2] [CuSO4, reference compound]",,,,,,,44.8 ± 6.3,not inhibited,not inhibited,12.9 ± 6.4,41.4 ± 0.9,35.8 ± 0.8,not inhibited,66.2 ± 5.6,not inhibited,not inhibited
